Values belong to the molecule of their own block, whether it stands above or below them.
Columns and labels:
[1] = tested on: DNBS-induced animal model (IBD rat model); assay: DNBS-induced colitis model; assay type: in vivo; details: oral, once a day, four weeks, FIG. 26
Procedure: Before induction of colitis with DNBS every week, experimental animals were fasted for 24 hours. Fasted animals were lightly anesthetized with isoflurane, catheter tubes with a length of 8 cm were inserted into the rat anus, and then colitis was induced by slowly injecting 250 μL of DNBS [15 mg (1st week), 30 mg (2nd week), 45 mg (3rd week) and 60 mg (4th week) in 250 μL of 50% ethanol] solution using a syringe pump at a rate of 100 μL/min. After the injection of the solution, a head-down posture was maintained for one minute so that the solution may spread evenly in the animal's intestines and may not leak out of the body. […]
The large intestine tissue extracted from the sacrificed experimental animals was photographed to measure the length of the large intestine. The length of the large intestine was measured from the taken picture using an image program (Leica Application Suite V4). […] The measured weight and length were used to convert the large intestine ratio (mg/cm) (=large intestine weight (mg)/large intestine length (cm)).
Calprotectin & c-reactive protein (CRP) and IFN-γ from serum collected at autopsy were analyzed by ELISA. […]

[2] = tested on: JAK1, Tyk2; assay: In vitro cell assay, JAK1, Tyk2 (U2OS cells, IFN-alphaB2); assay type: cell-based; details: Homo sapiens, read-out: IC50, Cell Biology JAK1, Tyk2
Procedure: Furthermore, there is a literature in which U20S cells are associated with JAK1/TYK2 signaling activity and phosphorylation of STAT1 by IFN-alphaB2 and IFN-γ. Accordingly, U2OS cells were prepared for the evaluation of JAK1 and TYK2 as a cell line which strongly expresses STAT1 signals.
The test material was dissolved in DMSO, prepared at 10 mM, divided by 20 μL each, and stored at −20° C.
• EPO: 2000 U/0.5 mL of stock was divided by 50 μL each and stored under refrigeration. • IL-2: 200 μg/ml of stock was prepared, divided by 5 μL each, and stored, and then treated at 2 ng/ml. (IL-2 1 μg/ml=13000 U/ml) • IFN-alphaB2: […] of stock was diluted and used, and then treated to reach 30000 U/ml.
• UT-7/EPO cell assay: MEM-alpha (Gibco, cat #12561-056) was prepared to contain 5% FBS and 1% P/S before use. • NK-92 cell assay: A preparation was made to contain HBSS, 1% FBS and 1% P/S before use. • U2OS cell assay: A preparation was made to contain HBSS, 1% FBS and 1% P/S before use.
The cultured cells were centrifuged (1,000 rpm, 5 minutes) and washed with PBS. The size of cell lines and appropriate reaction concentration thereof were set and the cell lines were seeded in a 96-well plate at 1×10^5 to 10^6 cells/well (50 μL/well). The test material was prepared 4× of the concentration to be treated, and prepared at five to six concentrations by serial dilution of ⅕ each. […]

[3] = tested on: DNCB-induced animal model (NC/Nga mice); assay: DNCB-induced atopic dermatitis model (PO); assay type: in vivo; details: twice a day for 28 days, FIGS. 17 to 19
Procedure: A DNCB-induced animal model was prepared in substantially the same manner as the DNCB model (topical) in Experimental Example 6, except that the phosphate compound was orally administered, and the phosphate compound obtained according to Example 3 was administered. The phosphate compound was orally administered a total of 56 times twice a day for 28 days, and an administration interval was eight hours. The dosage (10 mL/kg) was calculated and determined based on the body weight measured on the day of administration, and intragastrically administered through the mouth of mice using a 1 ml syringe and a feeding needle. The control group was dosed with 0.5% methylcellulose (0.5% MC).

[4] = Hygroscopicity evaluation; assay type: physicochemical; details: for Individual related material: in %
Description: Samples were placed in a glass desiccator in which relative humidity was adjusted to 33%, 53%, 75%, and 93%, and then stored for two and four weeks to be evaluated.

IC50 [2]: 0.027 µM
Compound: C[C@@H]1CN(C(=O)CC#N)CC=C1c1cc(NC(=O)C2CC2)nc2[nH]ccc12 [Compound 1, (S)—N-(4-(1-(2-cyanoacetyl)-3-methyl-1,2,3,6-tetrahydropyridin-4-yl)-1H-pyrrolo[2,3-b]pyridin-6-yl)cyclopropanecarboxamide]
Efficacy in IBD rat model [1]: exhibits efficacy in an IBD rat model
Level of proinflammatory cytokines compared to the control group (vehicle) [1]: significantly lower level of proinflammatory cytokines

Total related material ([4]; Initial): 0.37%
Water ([4]; Initial): 0.61%
Individual related material ([4]; Initial): 0.07
Total related material ([4]; relative humidity 33%, 2 W): 0.43%
Water ([4]; relative humidity 33%, 2 W): 0.41%
Individual related material ([4]; relative humidity 33%, 2 W): 0.07
Total related material ([4]; relative humidity 33%, 4 W): 0.41%
Water ([4]; relative humidity 33%, 4 W): 0.53%
Individual related material ([4]; relative humidity 33%, 4 W): 0.08
Total related material ([4]; relative humidity 53%, 2 W): 0.43%
Water ([4]; relative humidity 53%, 2 W): 0.53%
Individual related material ([4]; relative humidity 53%, 2 W): 0.08
Total related material ([4]; relative humidity 53%, 4 W): 0.35%
Water ([4]; relative humidity 53%, 4 W): 0.66%
Individual related material ([4]; relative humidity 53%, 4 W): 0.07
Total related material ([4]; relative humidity 75%, 2 W): 0.44%
Water ([4]; relative humidity 75%, 2 W): 0.60%
Individual related material ([4]; relative humidity 75%, 2 W): 0.08
Total related material ([4]; relative humidity 75%, 4 W): 0.39%
Water ([4]; relative humidity 75%, 4 W): 0.81%
Individual related material ([4]; relative humidity 75%, 4 W): 0.07
Total related material ([4]; relative humidity 93%, 2 W): 0.41%
Water ([4]; relative humidity 93%, 2 W): 1.17%
Individual related material ([4]; relative humidity 93%, 2 W): 0.08
Total related material ([4]; relative humidity 93%, 4 W): 0.33%
Water ([4]; relative humidity 93%, 4 W): 0.97%
Individual related material ([4]; relative humidity 93%, 4 W): 0.07
Compound: C[C@@H]1CN(C(=O)CC#N)CC=C1c1cc(NC(=O)C2CC2)nc2[nH]ccc12 [Example 3, (S)—N-(4-(1-(2-cyanoacetyl)-3-methyl-1,2,3,6-tetrahydropyridin-4-yl)-1H-pyrrolo[2,3-b]pyridin-6-yl)cyclopropanecarboxamide]
Symptoms of atopic dermatitis [3]: ameliorates symptoms of atopic dermatitis
